# Structures can show the parent of a compound that is named as a salt.
# System: Elongator complex protein 1 (ELPI, also referred to as IKBKAP)
# Experiment: IKBKAP-HTRF assay (IKBKAP protein in lysates of FD patient-derived fibroblasts)
# Assay type: cell-based, human
# Details: FD patient-derived fibroblasts GM04589, 48 hours, 7-point concentration curve
# Experimental: The assay is used for the quantitative determination of Elongator complex protein 1 (ELPI, also referred to as IKBKAP) concentration in cell lysates using the HTRF® (Homogeneous Time-Resolved Fluorescence) technology. IKBKAP is detected in a sandwich HTRF assay by use of an anti-IKAP antibody labeled with a donor and an anti-IKAP antibody labeled with an acceptor.
# Cells were thawed and incubated in DMEM-10% FBS for 72 hours. Cells were trypsinized, counted, and re-suspended to a concentration of 50,000 cells/ml in DMEM-10% FBS. A 199 μL aliquot of the cell suspensions were plated at 10,000 cells per well in a 96 well microtiter plate and incubated for 3 to 5 hours. […] Test compounds were serially diluted 3.16-fold in 100% DMSO to generate a 7-point concentration curve. A 1 μL aliquot of 200× compound solution was transferred to cell-containing wells, and cells were incubated for 48 hours in a cell culture incubator (37° C., 5% CO2, 100% relative humidity). Triplicate samples were set up for each compound concentration. After 48 hours, the supernatant was removed from the cells and 50 μL of the 1×LB4 lysis buffer, containing protease inhibitors, was added to the cells and incubated with shaking at room temperature for 1 hour. A 36 μL aliquot of this lysate was subsequently transferred to the 384-well plate containing 4 μL of the antibody solution (1:50 dilution of anti IKAP d2 and anti-IKAP K(9+8) in detection buffer). The 384-well plate was then centrifuged for 1 minute to bring the solutions to the bottom of the plate and incubated overnight at 4° C. Fluorescence for each well of the plate at 665 nm and 620 nm was measured was on the EnVision plate reader (Perkin Elmer). The ΔF for each sample is calculated by:
# [formula] wherein Signal is the normalized fluorescence for each sample well and Blank is the average normalized average fluorescence for the Blank control wells.
# The maximum fold increase (MFI) in IKBKAP protein abundance for compounds of Formula (I) or a form thereof relative to the vehicle control are provided in Table 1. MFI was calculated by dividing the ΔF value for each sample well by the sample ΔF for the vehicle control wells.
# The EC2x for IKBKAP protein expression obtained from the 7-point concentration curve generated for each test compound according to the protocol in Biological Example 1 are also provided in Table 1. The term “EC2x for IKBKAP protein expression” is defined as the concentration of test compound that is effective in producing two times the amount of IKBKAP protein in a FD patient cell compared to the amount produced from the DMSO vehicle control.
SMILES,EC2x for IKBKAP protein expression (concentration producing two times the amount of IKBKAP protein vs DMSO vehicle control),MFI (maximum fold increase in IKBKAP protein abundance relative to the vehicle control)
"Cl.NCCCc1cc2c(NCc3ccco3)nc(Cl)nc2[nH]1 [Cpd 1, 6-(3-aminopropyl)-2-chloro-N-[(furan-2-yl)methyl]-7H-pyrrolo[2,3-d]pyrimidin-4-amine hydrochloride]",*** (between >0.02 μM and ≤0.5 μM is indicated by three stars (***)),**** (between >3.9 and ≤4.9 is indicated by four stars (****))
"Cl.NCCCc1[nH]c2nc(Cl)nc(NCc3ccco3)c2c1F [Cpd 2, 6-(3-aminopropyl)-2-chloro-5-fluoro-N-[(furan-2-yl)methyl]-7H-pyrrolo[2,3-d]pyrimidin-4-amine hydrochloride]",*** (between >0.02 μM and ≤0.5 μM is indicated by three stars (***)),*** (between >2.9 and ≤3.9 is indicated by three stars (***))
"CNCCc1cc2c(NCc3ccco3)nc(Cl)nc2[nH]1.Cl [Cpd 3, 2-chloro-N-[(furan-2-yl)methyl]-6-[2-(methylamino)ethyl]-7H-pyrrolo[2,3-d]pyrimidin-4-amine hydrochloride]",*** (between >0.02 μM and ≤0.5 μM is indicated by three stars (***)),***** (>4.9 is indicated by five stars (*****))
"CNC(C)Cc1cc2c(NCc3ccco3)nc(Cl)nc2[nH]1.Cl (stereo not drawn) [Cpd 4, 2-chloro-N-[(furan-2-yl)methyl]-6-[2-(methylamino)propyl]-7H-pyrrolo[2,3-d]pyrimidin-4-amine hydrochloride]",*** (between >0.02 μM and ≤0.5 μM is indicated by three stars (***)),**** (between >3.9 and ≤4.9 is indicated by four stars (****))
"CNCCc1cc2c(NCc3nccs3)nc(Cl)nc2[nH]1.Cl [Cpd 5, 2-chloro-6-[2-(methylamino)ethyl]-N-[(1,3-thiazol-2-yl)methyl]-7H-pyrrolo[2,3-d]pyrimidin-4-amine hydrochloride]",*** (between >0.02 μM and ≤0.5 μM is indicated by three stars (***)),***** (>4.9 is indicated by five stars (*****))
"CNCCc1[nH]c2nc(Cl)nc(NCc3ccco3)c2c1F.Cl [Cpd 6, 2-chloro-5-fluoro-N-[(furan-2-yl)methyl]-6-[2-(methylamino)ethyl]-7H-pyrrolo[2,3-d]pyrimidin-4-amine hydrochloride]",*** (between >0.02 μM and ≤0.5 μM is indicated by three stars (***)),***** (>4.9 is indicated by five stars (*****))
"CN(C)CCc1cc2c(NCc3ccco3)nc(Cl)nc2[nH]1 [Cpd 7, 2-chloro-6-[2-(dimethylamino)ethyl]-N-[(furan-2-yl)methyl]-7H-pyrrolo[2,3-d]pyrimidin-4-amine]",* (An EC2x>1 μM is indicated by one star (*)),* (An MFI≤1.9 is indicated by one star (*))
"Cl.NCCc1cc2c(NCc3ccco3)nc(Cl)nc2[nH]1 [Cpd 8, 6-(2-aminoethyl)-2-chloro-N-[(furan-2-yl)methyl]-7H-pyrrolo[2,3-d]pyrimidin-4-amine hydrochloride]",*** (between >0.02 μM and ≤0.5 μM is indicated by three stars (***)),*** (between >2.9 and ≤3.9 is indicated by three stars (***))
"[2H]C([2H])([2H])NCCc1cc2c(NCc3ccco3)nc(Cl)nc2[nH]1 [Cpd 9, 2-chloro-N-[(furan-2-yl)methyl]-6-{2-[(^2H3)methylamino]ethyl}-7H-pyrrolo[2,3-d]pyrimidin-4-amine hydrochloride]",*** (between >0.02 μM and ≤0.5 μM is indicated by three stars (***)),**** (between >3.9 and ≤4.9 is indicated by four stars (****))
"C[C@H](N)Cc1[nH]c2nc(Cl)nc(NCc3ccco3)c2c1F.Cl [Cpd 10, 6-[(2S)-2-aminopropyl]-2-chloro-5-fluoro-N-[(furan-2-yl)methyl]-7H-pyrrolo[2,3-d]pyrimidin-4-amine hydrochloride]",**** (between >0.005 μM and ≤0.02 μM is indicated by four stars (****)),***** (>4.9 is indicated by five stars (*****))
"CC(C)[C@H](N)Cc1cc2c(NCc3ccco3)nc(Cl)nc2[nH]1.Cl [Cpd 11, 6-[(2R)-2-amino-3-methylbutyl]-2-chloro-N-[(furan-2-yl)methyl]-7H-pyrrolo[2,3-d]pyrimidin-4-amine hydrochloride]",*** (between >0.02 μM and ≤0.5 μM is indicated by three stars (***)),**** (between >3.9 and ≤4.9 is indicated by four stars (****))
"CC(C)[C@H](N)Cc1cc2c(NCc3ccncc3)nc(Cl)nc2[nH]1.Cl.Cl [Cpd 12, 6-[(2R)-2-amino-3-methylbutyl]-2-chloro-N-[(pyridin-4-yl)methyl]-7H-pyrrolo[2,3-d]pyrimidin-4-amine dihydrochloride]",*** (between >0.02 μM and ≤0.5 μM is indicated by three stars (***)),***** (>4.9 is indicated by five stars (*****))
"C[C@H](N)Cc1[nH]c2nc(Cl)nc(NCc3ccco3)c2c1Cl.Cl [Cpd 13, 6-[(2S)-2-aminopropyl]-2,5-dichloro-N-[(furan-2-yl)methyl]-7H-pyrrolo[2,3-d]pyrimidin-4-amine hydrochloride]",***** (≤0.005 μM is indicated by five stars (*****)),***** (>4.9 is indicated by five stars (*****))
"CC(C)[C@H](N)Cc1[nH]c2nc(Cl)nc(NCc3ccco3)c2c1F.Cl [Cpd 14, 6-[(2R)-2-amino-3-methylbutyl]-2-chloro-5-fluoro-N-[(furan-2-yl)methyl]-7H-pyrrolo[2,3-d]pyrimidin-4-amine hydrochloride]",**** (between >0.005 μM and ≤0.02 μM is indicated by four stars (****)),***** (>4.9 is indicated by five stars (*****))
"CC(C)[C@H](N)Cc1[nH]c2nc(Cl)nc(NCc3ccncc3)c2c1F.Cl.Cl [Cpd 15, 6-[(2R)-2-amino-3-methylbutyl]-2-chloro-5-fluoro-N-[(pyridin-4-yl)methyl]-7H-pyrrolo[2,3-d]pyrimidin-4-amine dihydrochloride]",*** (between >0.02 μM and ≤0.5 μM is indicated by three stars (***)),**** (between >3.9 and ≤4.9 is indicated by four stars (****))
"C[C@H](N)Cc1cc2c(NCc3ccco3)nc(Cl)nc2[nH]1 [Cpd 16, 6-[(2S)-2-aminopropyl]-2-chloro-N-[(furan-2-yl)methyl]-7H-pyrrolo[2,3-d]pyrimidin-4-amine]",**** (between >0.005 μM and ≤0.02 μM is indicated by four stars (****)),**** (between >3.9 and ≤4.9 is indicated by four stars (****))
"CNCCc1[nH]c2nc(Cl)nc(NCc3ccco3)c2c1Cl.Cl [Cpd 17, 2,5-dichloro-N-[(furan-2-yl)methyl]-6-[2-(methylamino)ethyl]-7H-pyrrolo[2,3-d]pyrimidin-4-amine hydrochloride]",*** (between >0.02 μM and ≤0.5 μM is indicated by three stars (***)),**** (between >3.9 and ≤4.9 is indicated by four stars (****))
"CNCCc1[nH]c2nc(Cl)nc(NCc3ccco3)c2c1Br [Cpd 18, 5-bromo-2-chloro-N-(furan-2-yl)methyl]-6-[2-(methylamino)ethyl]-7H-pyrrolo[2,3-d]pyrimidin-4-amine hydrochloride]",*** (between >0.02 μM and ≤0.5 μM is indicated by three stars (***)),**** (between >3.9 and ≤4.9 is indicated by four stars (****))

# Reference: patent publication US12398140B2, “Substituted pyrrolo [2,3-d]pyrimidines for treating familial dysautonomia” (PTC THERAPEUTICS, INC., priority 2019, dated 2025)
